Experimental data reported in the supplement of paper PMC13207355.

Tests used:
Conditions in all cases: exposure time: 72 h
E28 [1] = patient-derived glioblastoma stem cells of classical subtype; experiment: surviving fraction (nuclei count normalised to DMSO); higher = more cells surviving (less toxic)
E31 [2] = patient-derived glioblastoma stem cells of proneural subtype; experiment: as above
E21 [3] = patient-derived glioblastoma stem cells of mesenchymal subtype; experiment: as above
E57 [4] = patient-derived glioblastoma stem cells of mesenchymal subtype; experiment: as above
FT3469 [5] = normal neural stem cell line; experiment: as above
E34 [6] = patient-derived glioblastoma stem cells of proneural subtype; experiment: as above
E13 [7] = patient-derived glioblastoma stem cells of classical subtype; experiment: as above
E28 [8] = experiment: phenotypic distance (Euclidean, principal components) from DMSO controls (arbitrary units); higher = stronger morphological change
E31 [9] = experiment: as above
E21 [10] = experiment: as above
E57 [11] = experiment: as above
FT3469 [12] = experiment: as above
E34 [13] = experiment: as above
E13 [14] = experiment: as above
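For phenotypic distance (Euclidean, principal components) from DMSO controls in this document: cell Painting imaging in 384-well plates, CellProfiler features reduced to at least 20 principal components, Euclidean distance versus same-plate DMSO vehicle wells (0.1% v/v), median over six images per well.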
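For surviving fraction (nuclei count normalised to DMSO) in this document: nuclei counted by high-content imaging of Hoechst-stained cells in laminin-coated 384-well plates, relative to 0.1% DMSO vehicle wells, with staurosporine as cell-death control.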

CN(c1nccc(=O)[nH]1)C1CCN(c2nc3ccccc3n2Cc2ccc(F)cc2)CC1 [Mizolastine]
Conditions	phenotypic distance	surviving fraction
E13 [7], 4.1 nM	–	0.797
E13 [7], 12.3 nM	–	0.967
E13 [7], 37 nM	–	0.849
E13 [7], 111.1 nM	–	0.869
E13 [7], 333.3 nM	–	0.989
E13 [7], 1000 nM	–	0.896
E13 [7], 3000 nM	–	0.956
E13 [14], 4.1 nM	0.868	–
E13 [14], 12.3 nM	0.459	–
E13 [14], 37 nM	0.939	–
E13 [14], 111.1 nM	0.783	–
E13 [14], 333.3 nM	0.597	–
E13 [14], 1000 nM	0.555	–
E13 [14], 3000 nM	0.59	–
E21 [3], 4.1 nM	–	1
E21 [3], 12.3 nM	–	1
E21 [3], 37 nM	–	0.949
E21 [3], 111.1 nM	–	1.03
E21 [3], 333.3 nM	–	1.03
E21 [3], 1000 nM	–	1.01
E21 [3], 3000 nM	–	1.09
E21 [10], 4.1 nM	0.704	–
E21 [10], 12.3 nM	0.468	–
E21 [10], 37 nM	0.444	–
E21 [10], 111.1 nM	0.765	–
E21 [10], 333.3 nM	0.434	–
E21 [10], 1000 nM	0.621	–
E21 [10], 3000 nM	0.543	–
E28 [1], 4.1 nM	–	1.08
E28 [1], 12.3 nM	–	1.1
E28 [1], 37 nM	–	1.1
E28 [1], 111.1 nM	–	1.19
E28 [1], 333.3 nM	–	1.06
E28 [1], 1000 nM	–	1.13
E28 [1], 3000 nM	–	0.972
E28 [8], 4.1 nM	0.853	–
E28 [8], 12.3 nM	5.48	–
E28 [8], 37 nM	0.52	–
E28 [8], 111.1 nM	0.84	–
E28 [8], 333.3 nM	0.698	–
E28 [8], 1000 nM	0.693	–
E28 [8], 3000 nM	0.97	–
E31 [2], 4.1 nM	–	1.01
E31 [2], 12.3 nM	–	1.16
E31 [2], 37 nM	–	0.825
E31 [2], 111.1 nM	–	1.19
E31 [2], 333.3 nM	–	0.944
E31 [2], 1000 nM	–	1.18
E31 [2], 3000 nM	–	0.875
E31 [9], 4.1 nM	0.567	–
E31 [9], 12.3 nM	0.802	–
E31 [9], 37 nM	1.44	–
E31 [9], 111.1 nM	0.455	–
E31 [9], 333.3 nM	0.814	–
E31 [9], 1000 nM	0.555	–
E31 [9], 3000 nM	0.652	–
E34 [6], 4.1 nM	–	1.16
E34 [6], 12.3 nM	–	0.983
E34 [6], 37 nM	–	1.01
E34 [6], 111.1 nM	–	0.939
E34 [6], 333.3 nM	–	1.04
E34 [6], 1000 nM	–	1.1
E34 [6], 3000 nM	–	0.941
E34 [13], 4.1 nM	0.476	–
E34 [13], 12.3 nM	1.2	–
E34 [13], 37 nM	1.86	–
E34 [13], 111.1 nM	0.66	–
E34 [13], 333.3 nM	0.677	–
E34 [13], 1000 nM	0.599	–
E34 [13], 3000 nM	0.698	–
E57 [4], 4.1 nM	–	0.99
E57 [4], 12.3 nM	–	1.02
E57 [4], 37 nM	–	1.06
E57 [4], 111.1 nM	–	0.976
E57 [4], 333.3 nM	–	1.05
E57 [4], 1000 nM	–	1.05
E57 [4], 3000 nM	–	1.06
E57 [11], 4.1 nM	0.544	–
E57 [11], 12.3 nM	0.715	–
E57 [11], 37 nM	3.66	–
E57 [11], 111.1 nM	0.766	–
E57 [11], 333.3 nM	0.54	–
E57 [11], 1000 nM	0.624	–
E57 [11], 3000 nM	0.531	–
FT3469 [5], 4.1 nM	–	1.15
FT3469 [5], 12.3 nM	–	0.975
FT3469 [5], 37 nM	–	0.987
FT3469 [5], 111.1 nM	–	1.06
FT3469 [5], 333.3 nM	–	1.03
FT3469 [5], 1000 nM	–	0.94
FT3469 [5], 3000 nM	–	1.15
FT3469 [12], 4.1 nM	0.538	–
FT3469 [12], 12.3 nM	1.14	–
FT3469 [12], 37 nM	0.386	–
FT3469 [12], 111.1 nM	0.797	–
FT3469 [12], 333.3 nM	0.453	–
FT3469 [12], 1000 nM	0.544	–
FT3469 [12], 3000 nM	0.613	–
